Legend:
recombinant human ADAM9 = molecular target: T1, recombinant human ADAM9 (Homo sapiens, UniProt Q13443); assay: ADAM9 enzymatic activity, ELISA system with fluorogenic peptide substrate; format: biochemical
T1 construct: purchased R&D system
T1 sequence (Q13443 29-819): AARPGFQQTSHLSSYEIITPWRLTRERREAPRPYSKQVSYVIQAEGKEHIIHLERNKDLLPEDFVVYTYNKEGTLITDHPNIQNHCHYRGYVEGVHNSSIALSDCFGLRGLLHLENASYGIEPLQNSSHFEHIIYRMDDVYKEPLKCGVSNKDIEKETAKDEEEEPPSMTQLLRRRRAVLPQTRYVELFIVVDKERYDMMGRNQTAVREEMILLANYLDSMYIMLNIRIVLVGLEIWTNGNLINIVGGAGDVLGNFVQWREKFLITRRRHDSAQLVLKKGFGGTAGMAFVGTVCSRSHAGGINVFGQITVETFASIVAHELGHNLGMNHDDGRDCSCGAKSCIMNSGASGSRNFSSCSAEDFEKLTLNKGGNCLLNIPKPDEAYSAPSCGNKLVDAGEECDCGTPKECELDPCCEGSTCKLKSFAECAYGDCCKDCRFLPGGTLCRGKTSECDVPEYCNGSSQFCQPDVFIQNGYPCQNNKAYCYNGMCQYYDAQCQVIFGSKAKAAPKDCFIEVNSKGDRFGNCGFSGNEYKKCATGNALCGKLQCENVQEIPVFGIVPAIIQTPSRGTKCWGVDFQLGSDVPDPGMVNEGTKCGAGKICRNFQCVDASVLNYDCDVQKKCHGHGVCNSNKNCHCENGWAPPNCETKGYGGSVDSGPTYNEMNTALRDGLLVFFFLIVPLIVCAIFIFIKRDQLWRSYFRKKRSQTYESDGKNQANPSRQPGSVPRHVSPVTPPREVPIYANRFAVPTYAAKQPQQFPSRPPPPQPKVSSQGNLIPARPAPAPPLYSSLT
Description: To measure the efficacy of ADAM9 inhibitors in suppression of ADAM9 enzymatic activity, we established an ELISA system using recombinant human ADAM9 and a fluorogenic peptide substrate (R&D system). Broad-spectrum metalloprotease inhibitor BB-94 was included as a positive control. […] To evaluate the specificity of ADAM9 inhibitors, we performed a migration inhibition assay in control (shGFP) and ADAM9 knockdown (shADAM9) lung cancer cells in the presence of 25 μM of each compound. […] To ensure the generality of the compounds in blocking anoikis-resistance of cancer cells, we determined the IC50 of representative compounds for anoikis (anchorage-free induced apoptosis) in cancer cell lines and leukocytes in anchorage-free culture conditions. […] Plating efficiency of Bm7 treated with 20 μM ADAM9 inhibitor and TC1 cells treated with 10 μM ADAM9 inhibitor was shown. Control and ADAM9 knockout (KO) TC1 cells were treated with ADAM9 inhibitor for 24 hours and then stained with annexin V and PI. The apoptotic cells (Annexin V positive cells) are indicated as the percentage of gated cells from three independent experiments with mean±SD.

ADAM17 = ADAM17 (Homo sapiens, UniProt P78536); assay: ADAM17 inhibition; format: biochemical
[1] = tested on: lung cancer cells in suspension culture; assay: Cytotoxicity of lung cancer cells in suspension culture; format: cell-based
Source text: The representative derivatives can reduce CDCP1 expression.

4T1-luc cells = assay: 4T1-luc breast tumor model, adjuvant therapy after surgery; format: in vivo; settings: for mice with no relapse: adjuvant after surgery, 12W0271 10 mg/kg s.c. (over 333 days), doxorubicin 1 mg/kg i.p., 12 times
Description: To compare the therapeutic effect of the inhibitors to chemotherapy agent doxorubicin in breast cancer treatment, we treated mice with 12W0271 or doxorubicin as adjuvant therapy after surgery of primary breast tumors. Balb/c mice received mammary fat pad injection of 5×10^4 4T1-luc cells. ADAM9 inhibitor was subcutaneously injected at 10 mg/kg once a day, 5 times per week for total 12 times. Doxorubicin was intraperitoneally injected at 1 mg/kg, once a day, 5 times per week for total 12 times. […] This breast tumor animal model is a clinically relevant triple negative breast cancer with poor outcome. In doxorubicin treatment, only one mouse (12.5%) had complete response with no relapse. Body weight of survived mice in doxorubicin and 12W0271 groups was determined on day 140. Dash line indicates average body weight in normal mice.

TC1 lung cancer cells = assay: Metastatic lung tumor model (intravenous TC1), combination with cisplatin; format: in vivo, mice; settings: ADAM9 inhibitor 4 mg/kg i.v., cisplatin 1.5 mg/kg i.p., twice a week for 4 weeks
Description: To investigate the synergistic effect of chemotherapy drugs and ADAM9 inhibitors, we measured the cytotoxicity of individual and combination of cisplatin and 12W0271 for 3 days in TC1 cells by MTT. […] ADAM9 inhibitor (4 mg/kg) was intravenous injected twice a week for 4 weeks and cisplatin (1.5 mg/kg) was intraperitoneal injected twice a week for 4 weeks.

ADAM17, sequence (P78536 215-824, species assumed): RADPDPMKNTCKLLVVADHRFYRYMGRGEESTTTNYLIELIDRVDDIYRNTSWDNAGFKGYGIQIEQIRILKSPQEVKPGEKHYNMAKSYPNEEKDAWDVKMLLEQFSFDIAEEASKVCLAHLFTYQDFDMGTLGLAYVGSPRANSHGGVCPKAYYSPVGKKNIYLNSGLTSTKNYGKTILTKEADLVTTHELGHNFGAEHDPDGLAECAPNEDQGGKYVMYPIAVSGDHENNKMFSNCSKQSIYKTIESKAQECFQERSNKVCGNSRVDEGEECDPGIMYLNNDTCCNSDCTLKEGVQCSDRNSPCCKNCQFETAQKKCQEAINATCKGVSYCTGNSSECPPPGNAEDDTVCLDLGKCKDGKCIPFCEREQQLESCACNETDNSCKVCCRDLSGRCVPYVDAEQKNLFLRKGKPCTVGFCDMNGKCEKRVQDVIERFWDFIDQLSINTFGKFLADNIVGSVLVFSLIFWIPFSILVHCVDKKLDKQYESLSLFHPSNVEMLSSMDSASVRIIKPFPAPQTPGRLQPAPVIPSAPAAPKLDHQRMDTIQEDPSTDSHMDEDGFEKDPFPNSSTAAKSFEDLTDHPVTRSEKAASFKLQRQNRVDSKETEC

Row | Compound | ADAM9 activity (recombinant human ADAM9) | inhibitory effects in ADAM17 (ADAM17) | IC50 for the cytotoxicity of lung cancer cells, compared to compound 310 [1] | mice with no relapse (4T1-luc cells) | condition and body size of survived mice (4T1-luc cells; long term, 10 mg/kg s.c.) | survival time (TC1 lung cancer cells)
1 | O=C(Nc1nc(CCN2C(=O)c3ccccc3C2=O)cs1)c1cc2ccccc2s1 [6X-0214] | decreased ADAM9 activity to a similar extent in a dose-dependent manner | no inhibitory effects | strongly reduced the IC50 | – | – | –
2 | O=C1c2ccccc2C(=O)N1CCc1csc(Nc2nc(CCN3C(=O)c4ccccc4C3=O)cs2)n1 [12W-0271] | decreased ADAM9 activity to a similar extent in a dose-dependent manner | no inhibitory effects | strongly reduced the IC50 | 37.5% | healthy condition with bigger body size than the survival one in doxorubicin group | –
3 | N.N.[Cl][Pt][Cl] [cisplatin] | – | – | – | – | – | significantly prolonged survival time
4 | COc1cccc2c1C(=O)c1c(O)c3c(c(O)c1C2=O)C[C@@](O)(C(=O)CO)C[C@@H]3O[C@H]1C[C@H](N)[C@H](O)[C@H](C)O1 [doxorubicin, reference compound] | – | – | – | 12.5% | – | –
